Laboratory results reported in patent publication US11649255B2, “Indazoles as hematopoietic progenitor kinase 1 (HPK1) inhibitors and methods using same” (1st Biotherapeutics, Inc., priority 2020, dated 2023).

Each compound was assayed against recombinant human HPK1 (Homo sapiens (Human), UniProt Q92918) (assay: HPK1 kinase assay (ADP-Glo)). Settings: 25 μM ATP, MBP substrate.
Type: biochemical
How it was run: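 Activity was read as ADP formed, detected by ADP-Glo luminescence after the reaction of 5 ng recombinant human HPK1 with MBP and ATP (stocks 0.5 μg/μl and 25 μM) for 40 min at 30 °C. Buffer was Tris pH 7.5 with MgCl2, BSA and DTT, with compound in 0.5% DMSO. IC50 came from inhibition curves.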

Sequence of recombinant human HPK1 (Q92918 whole entry): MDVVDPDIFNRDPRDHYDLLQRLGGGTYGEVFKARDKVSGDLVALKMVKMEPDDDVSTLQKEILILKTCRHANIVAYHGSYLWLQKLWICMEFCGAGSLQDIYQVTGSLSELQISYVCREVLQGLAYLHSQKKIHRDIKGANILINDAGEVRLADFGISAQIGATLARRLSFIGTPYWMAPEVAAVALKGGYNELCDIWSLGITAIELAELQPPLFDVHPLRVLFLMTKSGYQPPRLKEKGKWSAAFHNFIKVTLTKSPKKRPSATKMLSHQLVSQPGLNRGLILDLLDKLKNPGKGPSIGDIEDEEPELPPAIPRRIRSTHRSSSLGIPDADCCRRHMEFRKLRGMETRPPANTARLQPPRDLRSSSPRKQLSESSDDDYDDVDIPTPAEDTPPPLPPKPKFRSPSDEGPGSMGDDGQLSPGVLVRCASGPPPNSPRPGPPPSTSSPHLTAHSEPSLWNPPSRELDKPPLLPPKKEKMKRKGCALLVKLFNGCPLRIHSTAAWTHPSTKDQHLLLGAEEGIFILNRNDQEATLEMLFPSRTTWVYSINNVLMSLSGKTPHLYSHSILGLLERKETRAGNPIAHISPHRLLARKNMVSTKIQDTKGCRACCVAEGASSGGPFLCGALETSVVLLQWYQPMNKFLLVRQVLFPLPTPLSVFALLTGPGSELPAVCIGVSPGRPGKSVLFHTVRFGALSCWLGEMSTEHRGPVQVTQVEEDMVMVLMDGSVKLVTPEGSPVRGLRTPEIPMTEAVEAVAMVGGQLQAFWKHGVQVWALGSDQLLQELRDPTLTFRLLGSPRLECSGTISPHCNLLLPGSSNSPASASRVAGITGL

Row | Structure (SMILES) | IC50 [nM]
1 | CSc1ccc(-c2ccc3nc(NC(=O)[C@@H]4C[C@@H]4F)cn3c2)c2cn[nH]c12 [Example 340, (1S,2S)-2-fluoro-N-(6-(7-(methylthio)-1H-indazol-4-yl)imidazo[1,2-a]pyridin-2-yl)cyclopropane-1-carboxamide] | 101 to 500
2 | CCN(C)C(=O)c1c(F)c(Cl)c(-c2ccc3nc(NC(=O)[C@@H]4C[C@@H]4F)cn3c2)c2cn[nH]c12 [Example 341, 5-chloro-N-ethyl-6-fluoro-4-(2-((1S,2S)-2-fluorocyclopropane-1-carboxamido)imidazo[1,2-a]pyridin-6-yl)-N-methyl-1H-indazole-7-carboxamide] | < 100
3 | CSc1c(F)cc(-c2ccc3nc(NC(=O)[C@@H]4C[C@@H]4F)cn3c2)c2cn[nH]c12 [Example 342, (1S,2S)-2-fluoro-N-(6-(6-fluoro-7-(methylthio)-1H-indazol-4-yl)imidazo[1,2-a]pyridin-2-yl)cyclopropane-1-carboxamide] | < 100
4 | Cc1c(F)c(C(F)F)c2[nH]ncc2c1-c1ccc2nc(NC(=O)[C@@H]3C[C@@H]3F)cn2c1 [Example 343, (1S,2S)-N-(6-(7-(difluoromethyl)-6-fluoro-5-methyl-1H-indazol-4-yl)imidazo[1,2-a]pyridin-2-yl)-2-fluorocyclopropane-1-carboxamide] | < 100
5 | O=C(Nc1cn2cc(-c3cc(F)c(OC(F)(F)F)c4[nH]ncc34)ccc2n1)[C@@H]1C[C@@H]1F [Example 344, (1S,2S)-2-fluoro-N-(6-(6-fluoro-7-(trifluoromethoxy)-1H-indazol-4-yl)imidazo[1,2-a]pyridin-2-yl)cyclopropane-1-carboxamide] | 101 to 500
6 | Cc1c(F)c(OC(F)(F)F)c2[nH]ncc2c1-c1ccc2nc(NC(=O)[C@@H]3C[C@@H]3F)cn2c1 [Example 345, (1S,2S)-2-fluoro-N-(6-(6-fluoro-5-methyl-7-(trifluoromethoxy)-1H-indazol-4-yl)imidazo[1,2-a]pyridin-2-yl)cyclopropane-1-carboxamide] | < 100
7 | CN(c1ncccn1)c1c(F)c(Cl)c(-c2ccc3nc(NC(=O)[C@@H]4C[C@@H]4F)cn3c2)c2cn[nH]c12 [Example 346, (1S,2S)-N-(6-(5-chloro-6-fluoro-7-(methyl(pyrimidin-2-yl)amino)-1H-indazol-4-yl)imidazo[1,2-a]pyridin-2-yl)-2-fluorocyclopropane-1-carboxamide] | < 100
8 | CN(CC(F)(F)F)C(=O)c1c(F)c(Cl)c(-c2ccc3nc(NC(=O)[C@@H]4C[C@@H]4F)cn3c2)c2cn[nH]c12 [Example 347, 5-chloro-6-fluoro-4-(2-((1S,2S)-2-fluorocyclopropane-1-carboxamido)imidazo[1,2-a]pyridin-6-yl)-N-methyl-N-(2,2,2-trifluoroethyl)-1H-indazole-7-carboxamide] | < 100
9 | CN(c1ccncn1)c1c(F)c(Cl)c(-c2ccc3nc(NC(=O)[C@@H]4C[C@@H]4F)cn3c2)c2cn[nH]c12 [Example 348, (1S,2S)-N-(6-(5-chloro-6-fluoro-7-(methyl(pyrimidin-4-yl)amino)-1H-indazol-4-yl)imidazo[1,2-a]pyridin-2-yl)-2-fluorocyclopropane-1-carboxamide] | < 100
10 | CN(Cc1cccnc1)c1c(F)c(Cl)c(-c2ccc3nc(NC(=O)[C@@H]4C[C@@H]4F)cn3c2)c2cn[nH]c12 [Example 349, (1S,2S)-N-(6-(5-chloro-6-fluoro-7-(methyl(pyridin-3-ylmethyl)amino)-1H-indazol-4-yl)imidazo[1,2-a]pyridin-2-yl)-2-fluorocyclopropane-1-carboxamide] | < 100
11 | Cn1nnnc1-c1c(F)c(Cl)c(-c2ccc3nc(NC(=O)[C@@H]4C[C@@H]4F)cn3c2)c2cn[nH]c12 [Example 350, (1S,2S)-N-(6-(5-chloro-6-fluoro-7-(1-methyl-1H-tetrazol-5-yl)-1H-indazol-4-yl)imidazo[1,2-a]pyridin-2-yl)-2-fluorocyclopropane-1-carboxamide] | < 100
12 | N#Cc1c(F)c(Cl)c(-c2ccc3nc(NC(=O)[C@@H]4C[C@@H]4F)cn3c2)c2cn[nH]c12 [Example 351, (1S,2S)-N-(6-(5-chloro-7-cyano-6-fluoro-1H-indazol-4-yl)imidazo[1,2-a]pyridin-2-yl)-2-fluorocyclopropane-1-carboxamide] | < 100
13 | CN(C)c1ccc(-c2ccc3nc(NC(=O)[C@@H]4C[C@@H]4F)cn3c2)c2cn[nH]c12 [Example 352, (1S,2S)-N-(6-(7-(dimethylamino)-1H-indazol-4-yl)imidazo[1,2-a]pyridin-2-yl)-2-fluorocyclopropane-1-carboxamide] | 101 to 500
14 | CN(Cc1ccncc1)c1c(F)c(Cl)c(-c2ccc3nc(NC(=O)[C@@H]4C[C@@H]4F)cn3c2)c2cn[nH]c12 [Example 353, (1S,2S)-N-(6-(5-chloro-6-fluoro-7-(methyl(pyridin-4-ylmethyl)amino)-1H-indazol-4-yl)imidazo[1,2-a]pyridin-2-yl)-2-fluorocyclopropane-1-carboxamide] | < 100
15 | CN(C)C(=O)c1c(F)cc(-c2ccc3nc(NC(=O)[C@@H]4C[C@@H]4F)cn3c2)c2cn[nH]c12 [Example 354, 6-fluoro-4-(2-((1S,2S)-2-fluorocyclopropane-1-carboxamido)imidazo[1,2-a]pyridin-6-yl)-N,N-dimethyl-1H-indazole-7-carboxamide] | > 1000
16 | CN(C)C(=O)c1c(F)cc2[nH]ncc2c1-c1ccc2nc(NC(=O)[C@@H]3C[C@@H]3F)cn2c1 [Example 355, 6-fluoro-4-(2-((1S,2S)-2-fluorocyclopropane-1-carboxamido)imidazo[1,2-a]pyridin-6-yl)-N,N-dimethyl-1H-indazole-5-carboxamide] | > 1000
17 | CCOc1c(F)c(F)c2[nH]ncc2c1-c1ccc2nc(NC(=O)[C@@H]3C[C@@H]3F)cn2c1 [Example 357, (1S,2S)-N-(6-(5-ethoxy-6,7-difluoro-1H-indazol-4-yl)imidazo[1,2-a]pyridin-2-yl)-2-fluorocyclopropane-1-carboxamide] | < 100
18 | CN1CCN(c2c(F)c(Cl)c(-c3ccc4nc(NC(=O)[C@@H]5C[C@@H]5F)cn4c3)c3cn[nH]c23)C1=O [Example 358, (1S,2S)-N-(6-(5-chloro-6-fluoro-7-(3-methyl-2-oxoimidazolidin-1-yl)-1H-indazol-4-yl)imidazo[1,2-a]pyridin-2-yl)-2-fluorocyclopropane-1-carboxamide] | < 100

Second part, the compound after the results:

Row | IC50 [nM] | Structure (SMILES)
19 | < 100 | CC(C)N(C)c1c(F)c(Cl)c(-c2ccc3nc(NC(=O)[C@@H]4C[C@@H]4F)cn3c2)c2cn[nH]c12 [Example 360, (1S,2S)-N-(6-(5-chloro-6-fluoro-7-(isopropyl(methyl)amino)-1H-indazol-4-yl)imidazo[1,2-a]pyridin-2-yl)-2-fluorocyclopropane-1-carboxamide]
20 | < 100 | O=C(Nc1cn2cc(-c3c(Cl)c(F)c(CF)c4[nH]ncc34)ccc2n1)[C@@H]1C[C@@H]1F [Example 363, (1S,2S)-N-(6-(5-chloro-6-fluoro-7-(fluoromethyl)-1H-indazol-4-yl)imidazo[1,2-a]pyridin-2-yl)-2-fluorocyclopropane-1-carboxamide]
21 | < 100 | Cc1noc(-c2c(F)c(Cl)c(-c3ccc4nc(NC(=O)[C@@H]5C[C@@H]5F)cn4c3)c3cn[nH]c23)n1 [Example 364, (1S,2S)-N-(6-(5-chloro-6-fluoro-7-(3-methyl-1,2,4-oxadiazol-5-yl)-1H-indazol-4-yl)imidazo[1,2-a]pyridin-2-yl)-2-fluorocyclopropane-1-carboxamide]
22 | < 100 | O=C(Nc1cn2cc(-c3c(Cl)c(F)c(-n4cccc4)c4[nH]ncc34)ccc2n1)[C@@H]1C[C@@H]1F [Example 365, (1S,2S)-N-(6-(5-chloro-6-fluoro-7-(1H-pyrrol-1-yl)-1H-indazol-4-yl)imidazo[1,2-a]pyridin-2-yl)-2-fluorocyclopropane-1-carboxamide]
23 | < 100 | N#CCNc1c(F)c(Cl)c(-c2ccc3nc(NC(=O)[C@@H]4C[C@@H]4F)cn3c2)c2cn[nH]c12 [Example 366, (1S,2S)-N-(6-(5-chloro-7-((cyanomethyl)amino)-6-fluoro-1H-indazol-4-yl)imidazo[1,2-a]pyridin-2-yl)-2-fluorocyclopropane-1-carboxamide]
24 | < 100 | O=C(Nc1cn2cc(-c3c(Cl)c(F)c(NC4CC4)c4[nH]ncc34)ccc2n1)[C@@H]1C[C@@H]1F [Example 367, (1S,2S)-N-(6-(5-chloro-7-(cyclopropylamino)-6-fluoro-1H-indazol-4-yl)imidazo[1,2-a]pyridin-2-yl)-2-fluorocyclopropane-1-carboxamide]
25 | < 100 | O=C(Nc1cn2cc(-c3c(Cl)c(F)c(N(C(=O)C(F)(F)F)C4CC4)c4[nH]ncc34)ccc2n1)[C@@H]1C[C@@H]1F [Example 368, (1S,2S)-N-(6-(5-chloro-7-(N-cyclopropyl-2,2,2-trifluoroacetamido)-6-fluoro-1H-indazol-4-yl)imidazo[1,2-a]pyridin-2-yl)-2-fluorocyclopropane-1-carboxamide]
26 | < 100 | O=C(CCO)Nc1c(F)c(Cl)c(-c2ccc3nc(NC(=O)[C@@H]4C[C@@H]4F)cn3c2)c2cn[nH]c12 [Example 369, (1S,2S)-N-(6-(5-chloro-6-fluoro-7-(3-hydroxypropanamido)-1H-indazol-4-yl)imidazo[1,2-a]pyridin-2-yl)-2-fluorocyclopropane-1-carboxamide]
27 | < 100 | CCC(C)Nc1c(F)c(Cl)c(-c2ccc3nc(NC(=O)[C@@H]4C[C@@H]4F)cn3c2)c2cn[nH]c12 (stereo partly drawn) [Example 370, (1S,2S)-N-(6-(7-(sec-butylamino)-5-chloro-6-fluoro-1H-indazol-4-yl)imidazo[1,2-a]pyridin-2-yl)-2-fluorocyclopropane-1-carboxamide]
28 | < 100 | CC(C#N)Nc1c(F)c(Cl)c(-c2ccc3nc(NC(=O)[C@@H]4C[C@@H]4F)cn3c2)c2cn[nH]c12 (stereo partly drawn) [Example 371, (1S,2S)-N-(6-(5-chloro-7-((1-cyanoethyl)amino)-6-fluoro-1H-indazol-4-yl)imidazo[1,2-a]pyridin-2-yl)-2-fluorocyclopropane-1-carboxamide]
